Measurements: PMC11603075 (Communications Biology, 2024)

Key:
[1] = target: T1, KDM5C (Homo sapiens, UniProt P41229); assay: MALDI–TOF MS demethylation/+16 Da assay, KDM5C; type: biochemical; settings: 90 min
T1 construct: KDM5C 1– 765; made in house; host or cells: Sf9 cells
T1 sequence (P41229 1-765): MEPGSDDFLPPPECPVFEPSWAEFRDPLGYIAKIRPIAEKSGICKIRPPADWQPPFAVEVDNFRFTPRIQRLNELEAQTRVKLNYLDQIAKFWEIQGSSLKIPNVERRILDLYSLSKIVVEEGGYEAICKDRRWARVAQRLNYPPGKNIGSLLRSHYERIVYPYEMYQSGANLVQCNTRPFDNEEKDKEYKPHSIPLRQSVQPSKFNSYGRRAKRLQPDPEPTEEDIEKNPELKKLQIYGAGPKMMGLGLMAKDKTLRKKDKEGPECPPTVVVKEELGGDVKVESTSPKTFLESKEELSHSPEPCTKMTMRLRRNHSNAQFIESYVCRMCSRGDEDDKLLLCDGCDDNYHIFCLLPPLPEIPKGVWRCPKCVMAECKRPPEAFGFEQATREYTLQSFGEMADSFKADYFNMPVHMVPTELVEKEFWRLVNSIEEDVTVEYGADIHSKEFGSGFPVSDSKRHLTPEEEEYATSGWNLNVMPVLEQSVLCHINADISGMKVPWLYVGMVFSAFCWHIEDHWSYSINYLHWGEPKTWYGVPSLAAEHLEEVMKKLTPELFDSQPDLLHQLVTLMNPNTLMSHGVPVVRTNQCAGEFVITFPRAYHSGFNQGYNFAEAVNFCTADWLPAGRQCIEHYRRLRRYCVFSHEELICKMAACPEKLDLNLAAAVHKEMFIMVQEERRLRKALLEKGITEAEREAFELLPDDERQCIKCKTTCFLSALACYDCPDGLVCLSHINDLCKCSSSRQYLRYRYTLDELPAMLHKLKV
From the text: Fig. 2 Histone H2a fragments are KDM5 and KDM4 substrates. […] See Supplementary Table 6 and Supplementary Fig. 2 for assay conditions and quantification, respectively. […] 0-minute MS spectrum in black, 60/90-minute spectrum in red.
MS-based screening assays with peptides and calf thymus histones were as reported; see Supplementary Table 6 for conditions. Time course assays were based on reported procedures. In brief, equal volumes of the enzyme and substrate solutions were combined to initiate the reaction; 10 µL of 2% (v/v) formic acid (HCOOH) in ddH2O or 100% methanol was added to 10 µL of the reaction mixture to quench reactions at different time points. Unless otherwise stated, time course assays were carried out in triplicate. In some cases, LC–MS was used instead of MALDI-TOF MS to avoid a MALDI matrix induced artefact with the hydroxylated product (Supplementary Fig. 16). […]
Supplementary Figure 2 Histone H2a peptide fragments are substrates of KDM4s and KDM5s.
2 for representative corresponding MALDI–TOF MS traces. Bar graphs comparing % product format ion (+16 Da and demethylation) of H2a(1–20)R3me2a by (a) K DM5 A–D (after 90 minutes) and (b) KDM4A–E ( a ft er 60 minutes), analysed by MALDI– TOF MS. n = (a) 2, (b) 3 (independent assays). See Supplementary Table 6 for assay condit ions. See Figure S13 A 1 for a positive control.
(also on this page, place not known: formation KDM5A–D (after MALDI–TOF conditions. Figure S13A1 KDM4A KDM4B KDM4C KDM4D KDM4E 80% product formation KDM5A KDM5B KDM5C KDM5D % product formation) […]
(§1) [ E nz ym e] [Peptide] [2OG] [Ascorbate] [(NH4)2F e(S O4)2] [TCEP] Buffer pH7.5 Enzyme Cognate substrate (mM) (mM) (mM) (mM) (mM) (mM) [HE PE S]
(§2) Supplementary Table 6 Summary of MS assay conditions for substrate screening. These conditions enabled efficient turnover of established substrates. Reactions were carried out at 37 °C unless otherwise st ated. […]

[2] = target: T1, KDM5C; assay: MALDI–TOF MS time course / specific activity, KDM5C; type: biochemical; settings: for specific activity: KDM5C
Method: MS-based screening assays with peptides and calf thymus histones were as reported; see Supplementary Table 6 for conditions. Time course assays were based on reported procedures. In brief, equal volumes of the enzyme and substrate solutions were combined to initiate the reaction; 10 µL of 2% (v/v) formic acid (HCOOH) in ddH2O or 100% methanol was added to 10 µL of the reaction mixture to quench reactions at different time points. Unless otherwise stated, time course assays were carried out in triplicate. In some cases, LC–MS was used instead of MALDI-TOF MS to avoid a MALDI matrix induced artefact with the hydroxylated product (Supplementary Fig. 16).
Data collected from time course assay(s) were used to plot the % conversion vs time (min) using GraphPad Prism5 version 5.04; the resultant slopes were used to fit a line with linear regression to the first-order region of the reaction. The resultant gradient was then converted from % product formation min^−1 to amount of peptide converted (demethylation and / or hydroxylation) in µM.
Supplementary Figure 4 Activity of KDM5C (black circles) with H2a(1–20)R3me2a is greater than that of KDM4E (white circles). (a) A MALDI–TOF MS time course graph of product formation (%) of KDM4E ( −14 Da/+16 Da) and KDM5C (−14 Da) reaction with H2a(1–20)R3me2a versus time (minutes). ~60% substrate depletion was reached after 105 minutes with KDM4E; ~95% of H2a(1–20)R3me2a was demethylated after 1 05 minut e s wit h K DM5 C. (b ) Comparison of specific activities of KDM4E with H2a(1–20)R3me2a (0.15 […]
bars; +/- SD; n = 3 (independent assays). See Supplementary Table 6 for assay condit ions.
(also on this page, place not known: 105 minutes KDM5C. (b) H2a(1 –20)R3me2a with conditions. specific activity (pmol·min-1·μM-1))
(1 picture or pasted object on this page, not shown here)
as §1, §2

## Ac - SGR [ me 2a ] GKQ GGKAR AKAKT R SSR [H2a(1–20)R3me2a, H2a(1–20)R3me2a without a biotin tag]
[1]; replicate 1
  +16 Da (% product formation): 0%
  demethylation (% product formation): 80.591%
[1]; replicate 2
  +16 Da (% product formation): 0%
  demethylation (% product formation): 82.588%
[2]; 0 min, replicate 1
  product formation (−14 Da): 0%
[2]; 0 min, replicate 2
  product formation (−14 Da): 0%
[2]; 0 min, replicate 3
  product formation (−14 Da): 0%
[2]; 5 min, replicate 1
  product formation (−14 Da): -4.611%
[2]; 5 min, replicate 2
  product formation (−14 Da): 1.214%
[2]; 5 min, replicate 3
  product formation (−14 Da): 6.766%
[2]; 15 min, replicate 1
  product formation (−14 Da): 6.633%
[2]; 15 min, replicate 2
  product formation (−14 Da): 6.871%
[2]; 15 min, replicate 3
  product formation (−14 Da): 19.5603%
[2]; 30 min, replicate 1
  product formation (−14 Da): 38.5829%
[2]; 30 min, replicate 3
  product formation (−14 Da): 44.7254%
[2]; 45 min, replicate 1
  product formation (−14 Da): 64.1732%
[2]; 45 min, replicate 2
  product formation (−14 Da): 64.8428%
[2]; 45 min, replicate 3
  product formation (−14 Da): 72.262%
[2]; 60 min, replicate 1
  product formation (−14 Da): 81.9609%
[2]; 60 min, replicate 2
  product formation (−14 Da): 81.6263%
[2]; 60 min, replicate 3
  product formation (−14 Da): 82.8852%
[2]; 75 min, replicate 1
  product formation (−14 Da): 85.9119%
[2]; 75 min, replicate 2
  product formation (−14 Da): 87.0734%
[2]; 75 min, replicate 3
  product formation (−14 Da): 90.3242%
[2]; 90 min, replicate 1
  product formation (−14 Da): 92.0497%
[2]; 90 min, replicate 2
  product formation (−14 Da): 90.1323%
[2]; 90 min, replicate 3
  product formation (−14 Da): 97.0348%
[2]; 105 min, replicate 1
  product formation (−14 Da): 95.3885%
[2]; 105 min, replicate 2
  product formation (−14 Da): 93.3144%
[2]; 105 min, replicate 3
  product formation (−14 Da): 100%
[2]; mean of n = 3, SD 0.006
  specific activity: 0.37 pmol min^−1 µM^−1
[2]; repeat 1
  specific activity: 0.3803 pmol·min-1·μM-1
[2]; repeat 2
  specific activity: 0.3775 pmol·min-1·μM-1
[2]; repeat 3
  specific activity: 0.3654 pmol·min-1·μM-1
[2]; ratio of specific activities
  RDM activity of KDM5C relative to KDM4E (times): 2.5 times
